Reference: ChEMBL document CHEMBL1201862, “PubChem BioAssay data set” (2004)
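How tested: cells in 96-well plates exposed to compound for 48 hours at five concentrations. Abbreviation: GI50, concentration required for 50% inhibition of growth.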 Calls of active or inactive are those of the source. Cut-off read from the data, not from the text of the source: active = GI50 up to about 1.1 µM and inactive = higher.

How the values were obtained:
Experiment in all cases: inhibition of tumour cell growth, NCI panel, 48 h
[1] = tested on: HCT-15
[2] = tested on: UACC-62
[3] = tested on: MDA-MB-435
[4] = tested on: A549
[5] = tested on: PC-3
[6] = tested on: HOP-62
[7] = tested on: NCI/ADR-RES
[8] = tested on: MOLT-4
[9] = tested on: LOX IMVI
[10] = tested on: CCRF-CEM
[11] = tested on: SF-268
[12] = tested on: MDA-N
[13] = tested on: MCF7
[14] = tested on: SW-620
[15] = tested on: T47D
[16] = tested on: OVCAR-8
[17] = tested on: NCI-H522
[18] = tested on: BT-549
[19] = tested on: COLO 205
[20] = tested on: NCI-H226
[21] = tested on: HT-29
[22] = tested on: A498
[23] = tested on: SK-MEL-5
[24] = tested on: U-251
[25] = tested on: SK-OV-3
[26] = tested on: SNB-75
[27] = tested on: SR
[28] = tested on: OVCAR-4
[29] = tested on: SN12C
[30] = tested on: DU-145
[31] = tested on: RXF 393
[32] = tested on: HL-60
[33] = tested on: IGROV-1
[34] = tested on: HCC 2998
[35] = tested on: KM12
[36] = tested on: Hs-578T
[37] = tested on: MDA-MB-231
[38] = tested on: M14
[39] = tested on: TK-10
[40] = tested on: UO-31
[41] = tested on: HCT-116
[42] = tested on: CAKI-1
[43] = tested on: SK-MEL-2
[44] = tested on: OVCAR-3
[45] = tested on: K562
[46] = tested on: RPMI-8226
[47] = tested on: NCI-H23
[48] = tested on: SF-539
[49] = tested on: UACC-257
[50] = tested on: EKVX
[51] = tested on: Malme-3M
[52] = tested on: SK-MEL-28
[53] = tested on: HOP-92
[54] = tested on: SNB-19
[55] = tested on: 786-0
[56] = tested on: SF-295
[57] = tested on: OVCAR-5
[58] = tested on: ACHN
[59] = tested on: NCI-H460

CC(C)(C)c1cc(/C=C(\C#N)C2=NCCO2)cc(C(C)(C)C)c1O
GI50 [1]: 3.29 µM
GI50 [2]: 4.31 µM (inactive)
GI50 [3]: 4.47 µM (inactive)
GI50 [4]: 4.44 µM (inactive)
GI50 [5]: 2.65 µM (inactive)
GI50 [6]: 4.3 µM (inactive)
GI50 [7]: 2.66 µM (inactive)
GI50 [8]: 3.37 µM (inactive)
GI50 [9]: 5.96 µM (inactive)
GI50 [10]: 2.4 µM (inactive)
GI50 [11]: 4.61 µM (inactive)
GI50 [12]: 4.42 µM (inactive)
GI50 [13]: 3.4 µM (inactive)
GI50 [14]: 4.06 µM (inactive)
GI50 [15]: 2.64 µM (inactive)
GI50 [16]: 4.67 µM (inactive)
GI50 [17]: 3.2 µM (inactive)
GI50 [18]: 3.43 µM (inactive)
GI50 [19]: 1.91 µM (inactive)
GI50 [20]: 5.4 µM (inactive)
GI50 [21]: 3.2 µM (inactive)
GI50 [22]: 3.84 µM (inactive)
GI50 [23]: 2.38 µM (inactive)
GI50 [24]: 3.31 µM (inactive)
GI50 [25]: 3.31 µM (inactive)
GI50 [26]: 2.42 µM (inactive)
GI50 [27]: 2.92 µM (inactive)
GI50 [28]: 3.13 µM (inactive)
GI50 [29]: 2.94 µM (inactive)
GI50 [30]: 4.94 µM (inactive)
GI50 [31]: 3.26 µM (inactive)
GI50 [32]: 2.12 µM (inactive)
GI50 [33]: 6.58 µM (inactive)
GI50 [34]: 2.92 µM (inactive)
GI50 [35]: 3.57 µM (inactive)
GI50 [36]: 5.09 µM (inactive)
GI50 [37]: 3.14 µM (inactive)
GI50 [38]: 5.02 µM (inactive)
GI50 [39]: 3.48 µM (inactive)
GI50 [40]: 2.73 µM (inactive)
GI50 [41]: 3.07 µM (inactive)
GI50 [42]: 3.04 µM (inactive)
GI50 [43]: 2.75 µM (inactive)
GI50 [44]: 2.17 µM (inactive)
GI50 [45]: 3.59 µM (inactive)
GI50 [46]: 1.86 µM (inactive)
GI50 [47]: 3.44 µM (inactive)
GI50 [48]: 3.77 µM (inactive)
GI50 [49]: 2.64 µM (inactive)
GI50 [50]: 4.99 µM (inactive)
GI50 [51]: 7.26 µM (inactive)
GI50 [52]: 6.35 µM (inactive)
GI50 [53]: 4.06 µM (inactive)
GI50 [54]: 4.43 µM (inactive)
GI50 [55]: 3.28 µM (inactive)
GI50 [56]: 2.86 µM (inactive)
GI50 [57]: 2.89 µM (inactive)
GI50 [58]: 3.56 µM (inactive)
GI50 [59]: 2.51 µM (inactive)

CC(C)C1OC(=O)C(Cc2ccccc2)N(C)C(=O)C(C(C)C)OC(=O)C(Cc2ccccc2)N(C)C(=O)C(C(C)C)OC(=O)C(Cc2ccccc2)N(C)C1=O (stereo not given)
GI50 [1]: 0.891 µM
GI50 [2]: 0.643 µM (active)
GI50 [3]: 0.641 µM (active)
GI50 [4]: 0.618 µM (active)
GI50 [5]: 0.687 µM (active)
GI50 [6]: 0.838 µM (active)
GI50 [7]: 0.771 µM (active)
GI50 [8]: 0.508 µM (active)
GI50 [9]: 0.802 µM (active)
GI50 [10]: 0.373 µM (active)
GI50 [11]: 1.4 µM (inactive)
GI50 [12]: 0.815 µM (active)
GI50 [13]: 0.647 µM (active)
GI50 [14]: 0.685 µM (active)
GI50 [15]: 1.05 µM (active)
GI50 [16]: 0.723 µM (active)
GI50 [17]: 0.689 µM (active)
GI50 [18]: 1.39 µM (inactive)
GI50 [19]: 0.682 µM (active)
GI50 [20]: 1.36 µM (inactive)
GI50 [21]: 0.783 µM (active)
GI50 [22]: 2.36 µM (inactive)
GI50 [23]: 0.53 µM (active)
GI50 [24]: 0.661 µM (active)
GI50 [25]: 0.836 µM (active)
GI50 [26]: 1.63 µM (inactive)
GI50 [27]: 1.89 µM (inactive)
GI50 [28]: 0.463 µM (active)
GI50 [29]: 0.804 µM (active)
GI50 [30]: 1.62 µM (inactive)
GI50 [31]: 0.887 µM (active)
GI50 [32]: 0.498 µM (active)
GI50 [33]: 1.03 µM (active)
GI50 [34]: 0.762 µM (active)
GI50 [35]: 0.501 µM (active)
GI50 [36]: 1.18 µM (inactive)
GI50 [37]: 1.37 µM (inactive)
GI50 [38]: 0.713 µM (active)
GI50 [39]: 0.757 µM (active)
GI50 [40]: 0.307 µM (active)
GI50 [41]: 0.989 µM (active)
GI50 [42]: 0.979 µM (active)
GI50 [43]: 0.628 µM (active)
GI50 [44]: 0.598 µM (active)
GI50 [45]: 0.838 µM (active)
GI50 [46]: 0.489 µM (active)
GI50 [47]: 1.03 µM (active)
GI50 [48]: 1.03 µM (active)
GI50 [49]: 0.748 µM (active)
GI50 [50]: 0.984 µM (active)
GI50 [51]: 0.359 µM (active)
GI50 [52]: 0.78 µM (active)
GI50 [53]: 0.528 µM (active)
GI50 [54]: 0.805 µM (active)
GI50 [55]: 1.17 µM (inactive)
GI50 [56]: 0.662 µM (active)
GI50 [57]: 1.03 µM (active)
GI50 [58]: 0.603 µM (active)
GI50 [59]: 0.865 µM (active)

N#CCN1CCN(CC#N)CCN(CC#N)CCN(CC#N)CC1
GI50 [2]: 80.2 µM (inactive)
GI50 [3]: > 100 µM (inactive)
GI50 [4]: > 100 µM (inactive)
GI50 [5]: 96.4 µM (inactive)
GI50 [6]: > 100 µM (inactive)
GI50 [7]: > 100 µM (inactive)
GI50 [8]: > 100 µM (inactive)
GI50 [9]: 33.3 µM (inactive)
GI50 [10]: 67 µM (inactive)
GI50 [11]: > 100 µM (inactive)
GI50 [12]: > 100 µM (inactive)
GI50 [13]: 43.1 µM (inactive)
GI50 [14]: 42 µM (inactive)
GI50 [15]: > 100 µM (inactive)
GI50 [16]: > 100 µM (inactive)
GI50 [17]: > 100 µM (inactive)
GI50 [18]: > 100 µM (inactive)
GI50 [19]: > 100 µM (inactive)
GI50 [20]: > 100 µM (inactive)
GI50 [21]: 50.5 µM (inactive)
GI50 [22]: > 100 µM (inactive)
GI50 [23]: > 100 µM (inactive)
GI50 [24]: > 100 µM (inactive)
GI50 [25]: 46.8 µM (inactive)
GI50 [26]: > 100 µM (inactive)
GI50 [27]: > 100 µM (inactive)
GI50 [28]: > 100 µM (inactive)
GI50 [29]: > 100 µM (inactive)
GI50 [30]: > 100 µM (inactive)
GI50 [31]: 79.6 µM (inactive)
GI50 [32]: 33.3 µM (inactive)
GI50 [33]: > 100 µM (inactive)
GI50 [34]: 43.5 µM (inactive)
GI50 [35]: > 100 µM (inactive)
GI50 [36]: > 100 µM (inactive)
GI50 [37]: > 100 µM (inactive)
GI50 [38]: > 100 µM (inactive)
GI50 [39]: > 100 µM (inactive)
GI50 [40]: > 100 µM (inactive)
GI50 [41]: > 100 µM (inactive)
GI50 [42]: > 100 µM (inactive)
GI50 [43]: > 100 µM (inactive)
GI50 [44]: > 100 µM (inactive)
GI50 [45]: > 100 µM (inactive)
GI50 [46]: 38.3 µM (inactive)
GI50 [47]: > 100 µM (inactive)
GI50 [48]: > 100 µM (inactive)
GI50 [49]: > 100 µM (inactive)
GI50 [51]: > 100 µM (inactive)
GI50 [52]: > 100 µM (inactive)
GI50 [53]: > 100 µM (inactive)
GI50 [54]: > 100 µM (inactive)
GI50 [55]: > 100 µM (inactive)
GI50 [56]: > 100 µM (inactive)
GI50 [57]: > 100 µM (inactive)
GI50 [58]: > 100 µM (inactive)
GI50 [59]: 53.3 µM (inactive)
